# Test results taken from publication PMC4184702 (Pharmacology Research & Perspectives, 2014).
# Entries after “also recorded” stand apart in the source; their conditions may differ. Read-outs that look alike come from different tables or passages of the source.
# What was measured:
# [1] = target: α4β2* nAChR; settings: Figure 1, cited from earlier work
# [2] = target: α7* nAChR; settings: Figure 1, cited from earlier work
# [3] = target: α3β4* nAChR; set-up: method as in Mineur et al. ([2009]); settings: Figure 1; ref Mineur et al. ([2009]); cited from earlier work
# [4] = tested on: LS and HS α4β2-nAChR; set-up: method as in Mineur et al. [2009]; settings: relative to that of ACh; ref Mineur et al. [2009]; cited from earlier work
# [5] = tested on: C57BL/6J mice; settings: ref Mineur et al. [2009], cited from earlier work; for latency to eat in NSF: 14 days repeat treatment, C57BL/6J mice, [2011]
# [6] = tested on: Male C57 BL6 mice; experiment: SmartCube test; format: in vivo, mouse; settings: for SmartCube behavioral signature: both tested doses, 15 min preinjection
# Experimental: Male C57 BL6 mice (Taconic Farms) were used in the SmartCube® assay (PsychoGenics Inc., Tarrytown, NY). Mice were received at 7 weeks old and group-housed in OptiMICE ventilated cages with four mice/cage. Mice were acclimated to the colony room for at least 1 week prior to the first injections. All animals were tested in SmartCube® at 8 10 weeks old.
# To acquire initial in vivo evaluation of our nicotinic ligands for behavioral effects relevant to psychiatric diseases, we used SmartCube®, an automated system in which mouse behavior is captured by digital video using novel, proprietary hardware that presents multiple challenges in a single test session and is analyzed with computer algorithms. Digital videos of the subjects are processed with computer vision algorithms to extract more than 1400 dependent measures including frequency and duration of behavioral states such as grooming, rearing, etc., and many other features obtained during the test session. Using machine learning techniques chosen to best separate pharmacological effects of reference compounds, the behavioral signatures of the mutant mice are then assessed quantitatively.
# The most dominant of the features collected that define the drug class signature are identified and ranked using complex proprietary bioinformatics algorithms. The outcome of a SmartCube® run is a set of more than 1400 features (behavioral parameters) that can be used for various analyses. Many of these features are correlated (e.g., rearing counts and supported rearing counts). Therefore, we form statistically independent combinations of the original features (further referred to as decorrelated features) that discriminate between the groups more effectively. Next, we apply a proprietary feature ranking algorithm to score each feature discrimination power to weight each feature change by its relevance. The data obtained in this way are used to define drug signatures for known reference compounds and to establish therapeutic class signatures against which a test sample can be compared. The neuropharmacological effects of a test compound can be predicted by similarity to major classes of compounds, such as antipsychotics, anxiolytics, and antidepressants (Roberds et al. [2011]).
# Mice are taken in their home cage to the SmartCube® suite of experimental rooms where they remain until they are placed in the apparatus for a single testing session. A standard SmartCube® protocol runs for a single session (∼45 min). After the session mice are group-housed again and brought back to the colony room. Any abnormal behavior is noted. […] At least 12 mice were used in each treatment group.
# [7] = target: α3β4 nAChR; settings: Figure 1, cited from earlier work
# [8] = target: α4β2 nAChR; settings: Figure 1, cited from earlier work
# [9] = tested on: mice; settings: ref Mineur et al. [2009]; cited from earlier work
# [10] = target: T1, human α3β4*-nAChR (Homo sapiens, UniProt P30926+P32297); experiment: 86Rb+ ion efflux assay, SH-SY5Y cells; format: cell-based; settings: 86Rb+ efflux
# T1 construct: SH-SY5Y naturally expresses autonomic α3β4*-nAChRs; endogenous in cells; host or cells: SH-SY5Y human neuroblastoma cells
# From the text: (§1) Cell lines naturally or heterologously expressing specific, functional, human nAChR subtypes were used. The human clonal cell line TE671/RD naturally expresses human muscle-type α1*-nAChRs, containing α1, β1, γ, and δ subunits, with function detectable using ^86Rb^+ efflux assays. […] These cells heterologously express human nAChR chimeric (α6/3) subunits (wherein the extracellular, N-terminal, ligand-binding domain of the human nAChR α6 subunit replaces that domain in the nAChR α3 subunit) along with human β2 and β3 subunits. […] Cells were passaged once a week by splitting just-confluent cultures 1/300 (TE671/RD), 1/10 (SH-SY5Y), or 1/40 (transfected SH-EP1) in serum-supplemented medium to maintain log-phase growth.
# (§2) One newer modification on these techniques involves low temperature incubation before assays to increase the surface expression of high sensitivity (HS) relative to low sensitivity (LS) α4β2 nAChRs and to enhance surface expression of (α6/3)β2β3-nAChRs. […] In brief, this allows us to determine efficacies of test compounds at LS and HS α4β2 nAChRs, respectively, as the ordinate values of the linear regressions at abscissa values of 0% and 100% of sazetidine-A efficacy.
# (§3) Results are normalized to responses to a fully efficacious concentration of carbamylcholine (see Materials and Methods for details). […]
# [11] = tested on: BALB/cJ and C57BL/6J mice; settings: 28 days oral administration; ref Vieyra-Reyes et al. [2008]; cited from earlier work
# [12] = tested on: male 129SvJ;C57BL/6J F1 hybrid mice; set-up: method as in Turner et al. ([2010]); settings: chronic treatment; ref Turner et al. ([2010]); cited from earlier work
# [13] = target: T2, human α4β2-nAChR (Homo sapiens, UniProt P17787+P43681); experiment: 86Rb+ ion efflux assay, SH-EP1-hα4β2 cells; format: cell-based; settings: normalized to a full antagonist
# T2 construct: expressed in transfected cells; host or cells: SH-EP1 human epithelial cells (SH-EP1-hα4β2)
# From the text: as §1, §2, §3
# [14] = target: T3, HS (high sensitivity) α4β2-nAChRs (Homo sapiens, UniProt P17787+P43681); experiment: 86Rb+ ion efflux assay, HS α4β2 efficacy by regression on sazetidine-A efficacy; format: cell-based; settings: relative to carbamylcholine
# T3 construct: expressed in transfected cells; host or cells: SH-EP1 human epithelial cells (SH-EP1-hα4β2)
# From the text: as §1, §2, §3
# [15] = target: T4, LS (low sensitivity) α4β2-nAChRs (Homo sapiens, UniProt P17787+P43681); experiment: 86Rb+ ion efflux assay, LS α4β2 efficacy by regression on sazetidine-A efficacy; format: cell-based; settings: relative to carbamylcholine
# T4 construct: expressed in transfected cells; host or cells: SH-EP1 human epithelial cells (SH-EP1-hα4β2)
# From the text: as §1, §2, §3
# [16] = target: T5, human (α6/3)β2β3-nAChR (Homo sapiens, UniProt P17787+P32297+Q15825); experiment: 86Rb+ ion efflux assay, SH-EP1-h(α6/3)β2β3 cells; format: cell-based
# T5 construct: expressed in transfected cells; host or cells: SH-EP1 human epithelial cells (SH-EP1-h(α6/3)β2β3)
# From the text: as §1, §2
# Results are normalized to responses to a fully efficacious concentration of carbamylcholine (see Materials and Methods for details). […] The ordinate intercepts of the linear regressions at a sazetidine-A efficacy (abscissa) of 0% represent the efficacies at LS α4β2-nAChRs, while the ordinate intercepts at a sazetidine-A efficacy of 100% represent the efficacies at HS α4β2-nAChRs.
# [17] = target: α4β4 nAChR; settings: ref Rollema et al. [2010]; cited from earlier work
# [18] = target: α7 nAChR; settings: ref Rollema et al. [2010]; read-out: Ki α7; cited from earlier work
# [19] = tested on: α4β2*-nAChR; set-up: method as in Weber et al. [2013]; settings: estimate at free concentration in brain; ref Weber et al. [2013]; cited from earlier work
# T5 sequence (Q15825+P32297 fused with the stated changes): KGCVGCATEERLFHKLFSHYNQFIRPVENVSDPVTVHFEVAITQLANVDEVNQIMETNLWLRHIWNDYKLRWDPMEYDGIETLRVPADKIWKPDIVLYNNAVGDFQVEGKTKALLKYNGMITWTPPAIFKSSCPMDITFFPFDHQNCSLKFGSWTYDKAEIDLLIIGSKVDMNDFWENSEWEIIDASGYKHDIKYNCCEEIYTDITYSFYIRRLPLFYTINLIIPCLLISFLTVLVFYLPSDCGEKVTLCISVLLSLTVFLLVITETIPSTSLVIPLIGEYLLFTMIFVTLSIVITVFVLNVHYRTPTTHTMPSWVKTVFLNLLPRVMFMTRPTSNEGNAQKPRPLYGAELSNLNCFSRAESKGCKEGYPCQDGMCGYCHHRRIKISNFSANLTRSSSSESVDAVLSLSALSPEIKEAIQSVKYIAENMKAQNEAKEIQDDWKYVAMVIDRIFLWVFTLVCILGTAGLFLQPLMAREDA
# T5 sequence (P17787 26-502): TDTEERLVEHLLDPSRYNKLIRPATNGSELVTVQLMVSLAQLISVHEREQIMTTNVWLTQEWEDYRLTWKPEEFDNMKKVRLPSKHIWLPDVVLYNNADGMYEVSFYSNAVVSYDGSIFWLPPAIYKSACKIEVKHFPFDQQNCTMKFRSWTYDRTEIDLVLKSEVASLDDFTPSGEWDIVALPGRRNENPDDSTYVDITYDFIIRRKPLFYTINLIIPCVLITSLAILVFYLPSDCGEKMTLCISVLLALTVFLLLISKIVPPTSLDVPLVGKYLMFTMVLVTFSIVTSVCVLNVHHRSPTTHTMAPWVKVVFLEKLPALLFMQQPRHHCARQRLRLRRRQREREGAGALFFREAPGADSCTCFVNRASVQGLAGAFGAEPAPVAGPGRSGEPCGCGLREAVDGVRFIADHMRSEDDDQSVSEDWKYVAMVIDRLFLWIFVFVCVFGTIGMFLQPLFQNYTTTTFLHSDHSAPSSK
# T5 sequence (Q05901 25-458 partner limits assumed): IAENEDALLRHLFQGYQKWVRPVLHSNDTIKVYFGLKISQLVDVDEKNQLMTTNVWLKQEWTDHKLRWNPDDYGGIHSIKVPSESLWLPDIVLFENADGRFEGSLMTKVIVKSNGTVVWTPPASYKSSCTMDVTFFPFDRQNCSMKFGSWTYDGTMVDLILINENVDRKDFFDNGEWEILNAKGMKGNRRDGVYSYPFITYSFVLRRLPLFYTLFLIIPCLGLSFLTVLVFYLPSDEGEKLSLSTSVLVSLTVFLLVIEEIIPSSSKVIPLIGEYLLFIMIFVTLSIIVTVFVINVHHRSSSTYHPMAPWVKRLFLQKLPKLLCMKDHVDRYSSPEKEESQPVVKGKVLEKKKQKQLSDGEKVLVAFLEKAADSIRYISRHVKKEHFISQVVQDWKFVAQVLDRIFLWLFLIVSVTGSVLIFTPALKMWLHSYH
# T1 sequence (P32297 32-505): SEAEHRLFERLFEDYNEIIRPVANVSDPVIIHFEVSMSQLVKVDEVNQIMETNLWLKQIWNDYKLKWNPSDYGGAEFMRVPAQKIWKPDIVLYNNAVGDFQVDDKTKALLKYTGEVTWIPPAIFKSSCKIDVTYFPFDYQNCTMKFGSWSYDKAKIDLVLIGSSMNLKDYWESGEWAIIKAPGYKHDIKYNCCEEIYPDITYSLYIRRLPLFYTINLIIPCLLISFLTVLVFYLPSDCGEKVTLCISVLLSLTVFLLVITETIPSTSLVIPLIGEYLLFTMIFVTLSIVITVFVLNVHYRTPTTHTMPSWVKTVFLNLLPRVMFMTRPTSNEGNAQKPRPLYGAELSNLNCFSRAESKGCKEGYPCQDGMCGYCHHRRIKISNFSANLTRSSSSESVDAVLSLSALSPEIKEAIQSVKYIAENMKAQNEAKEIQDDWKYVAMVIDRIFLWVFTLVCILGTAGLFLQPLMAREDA
# T1 sequence (P30926 22-498): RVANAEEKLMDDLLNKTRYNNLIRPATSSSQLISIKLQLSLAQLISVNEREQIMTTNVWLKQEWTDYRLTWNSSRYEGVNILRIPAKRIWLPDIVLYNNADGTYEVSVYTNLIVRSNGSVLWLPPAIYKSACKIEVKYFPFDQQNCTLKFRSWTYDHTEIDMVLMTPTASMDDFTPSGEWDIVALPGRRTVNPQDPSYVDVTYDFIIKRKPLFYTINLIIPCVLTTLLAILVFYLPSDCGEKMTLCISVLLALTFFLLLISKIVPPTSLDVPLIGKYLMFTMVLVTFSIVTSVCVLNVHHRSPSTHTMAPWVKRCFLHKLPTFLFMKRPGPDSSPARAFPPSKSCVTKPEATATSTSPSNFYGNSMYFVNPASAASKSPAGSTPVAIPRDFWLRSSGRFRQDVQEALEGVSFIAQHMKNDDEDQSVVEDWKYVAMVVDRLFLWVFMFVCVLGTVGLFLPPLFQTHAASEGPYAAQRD
# T2 sequence (P43681 29-627 limits assumed): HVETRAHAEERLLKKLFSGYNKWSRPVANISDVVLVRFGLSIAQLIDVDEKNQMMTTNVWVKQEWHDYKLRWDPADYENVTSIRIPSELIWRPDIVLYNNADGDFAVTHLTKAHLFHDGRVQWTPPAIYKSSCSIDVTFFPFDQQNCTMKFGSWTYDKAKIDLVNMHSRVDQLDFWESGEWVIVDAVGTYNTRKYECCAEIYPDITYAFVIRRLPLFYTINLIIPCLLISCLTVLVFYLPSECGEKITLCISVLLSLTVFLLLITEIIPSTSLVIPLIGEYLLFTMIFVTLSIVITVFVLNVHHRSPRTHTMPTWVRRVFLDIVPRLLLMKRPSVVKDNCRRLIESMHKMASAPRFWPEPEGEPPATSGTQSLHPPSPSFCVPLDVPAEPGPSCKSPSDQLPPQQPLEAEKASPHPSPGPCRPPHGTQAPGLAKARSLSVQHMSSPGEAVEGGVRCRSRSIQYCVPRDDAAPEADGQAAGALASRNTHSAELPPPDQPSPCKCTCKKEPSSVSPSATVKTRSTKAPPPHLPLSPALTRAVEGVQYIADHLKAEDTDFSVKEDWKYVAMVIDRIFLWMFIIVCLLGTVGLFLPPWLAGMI
# T2 sequence (P17787 26-502): as the sequence (P17787 26-502) above
# T3 sequence (P43681 29-627 limits assumed): as the sequence (P43681 29-627 limits assumed) above
# T3 sequence (P17787 26-502): as the sequence (P17787 26-502) above
# T4 sequence (P43681 29-627 limits assumed): as the sequence (P43681 29-627 limits assumed) above
# T4 sequence (P17787 26-502): as the sequence (P17787 26-502) above
smiles,measurement,setting,value
O=c1c(-c2ccccn2)ccc2n1CC1CNCC2C1 (stereo not shown) [3-(2-pyridyl)cytisine],Ki,[1]; ref Mineur et al. ([2009]),0.91 nM
same,Ki,[2]; ref Mineur et al. ([2009]),1.1 µM
same,Ki,[3],119 nM
same,intrinsic efficacy at both LS and HS receptors,[4],no more than 10%
same,latency to eat in NSF,[5],decreased the latency to eat
same,dose found effective in the NSF test,[5]; lower dose only (0.3 vs. 0.6 mg/kg),0.3 mg/kg
O=c1cccc2n1C[C@@H]1CNC[C@H]2C1 [(-)-cytisine],SmartCube antidepressant (green) component,"[6]; 1.0 mg/kg, i.p.",potential antidepressive-like behavior; also recorded: most pronounced
same,SmartCube side effects,"[6]; 0.5 and 1.0 mg/kg, i.p.",Minimal side effects; also recorded: no obvious side effects
same,SmartCube behavioral signature,[6]; i.p.,robust CNS drug-like signatures
same,Ki,[7]; ref Rollema et al. ([2010]),480 nM
same,Ki,[8]; ref Rollema et al. ([2010]),2 nM
same,Ki,[2]; ref Rollema et al. ([2010]),5.89 µM
same,intrinsic efficacy at both LS and HS receptors,[4],no more than 10%
same,latency to eat in NSF,[5],decreased the latency to eat
same,dose not tolerated by mice,[9],> 1.5 mg/kg
FC(F)(F)c1ccc2c(c1)[C@H]1CNC[C@@H]2C1 [CP-601927],Ki,[7]; ref Mineur et al. ([2011]),102 nM
same,Ki,[8]; ref Mineur et al. ([2011]),1.2 nM
same,latency to eat in NSF,[5],increased the latency to eat
CN1CCC[C@H]1c1cccnc1 [Nicotine],Agonism α3β4*-nAChR Efficacy,[10],90%
same,behavioral changes in NSF,[11],failed to show significant behavioral changes
OCCCCC#Cc1cncc(OC[C@@H]2CCN2)c1 [Sazetidine-A],Ki,[7]; ref Xiao et al. ([2006]),10000 nM
same,Ki,[8]; ref Xiao et al. ([2006]),0.4 nM
same,Ki,[1]; ref Xiao et al. ([2006]),0.9 nM
same,"time needed to approach food, NIH paradigm",[12],decreased the time needed to approach food
c1cnc2cc3c(cc2n1)[C@@H]1CNC[C@H]3C1 [Varenicline],Inactivation α4β2-nAChR Efficacy,[13],79 ± 3.3%
same,Agonism α4β2-nAChR HS Efficacy,[14],105 ± 4.4%
same,Agonism α4β2-nAChR LS Efficacy,[15],34 ± 2.8%
same,EC50,"[16]; 86Rb+ efflux, read-out: Agonism (α6/3)β2β3-nAChR pEC50 (converted)",17.8 nM
same,Agonism (α6/3)β2β3-nAChR Efficacy,[16]; normalized to a full agonist,17 ± 0.5
same,Inactivation (α6/3)β2β3-nAChR Efficacy,[16]; normalized to a full antagonist,74 ± 2.6%
same,Agonism α3β4*-nAChR Efficacy,[10],110%
same,SmartCube antidepressant effects,[6]; 1 mg/kg,weak antidepressant effects
same,SmartCube side effects,"[6]; 1.0 mg/kg, i.p.",Minimal side effects
same,"SmartCube side effect component, probability","[6]; 3.0 mg/kg, i.p.",about 30%
same,SmartCube behavioral signature,[6]; i.p.,robust CNS drug-like signatures
same,Ki,[17],110 nM
same,Ki,[18],125 nM
same,latency to eat in NSF,[5],did not show any effect
same,"time needed to approach food, NIH paradigm",[12],no effect
CNC1(C)C2CCC(C2)C1(C)C (stereo not shown) [mecamylamine],block of α4β2*-nAChR function,[19],~20%
